Measured values published in patent publication US20260206809A1, “NATURAL SWEETENER COMPOSITIONS CONTAINING ALKYL LACTATES AND USES THEREOF” (Firmenich SA, priority 2022, published 2026).

Experiment: Solubility limit of the natural sweetener in pure solvents (estimated)
Format: physicochemical
Conditions: for Solubility limit in ethyl lactate: pure ethyl lactate; for Solubility limit in glycerol: pure glycerol
Method: As used herein, “solubility at 25° C.” or “solubility at RT” is meant to represent the thermodynamic, equilibrium solubility of a natural sweetener at 25° C. or at RT. […] Subsequently, even once the temperature is brought back to a lower temperature, for example to 25° C., the solid compound may remain in solution for a certain amount of time while being supersaturated. However, this is an apparent solubility due to a non-equilibrium, metastable state with limited shelf-life stability, and therefore is distinguished from thermodynamic solubility at equilibrium. Thermodynamic solubility can, for example, be determined with the so-called shake flask method at a controlled temperature. Alternatively, it can be determined by slowly heating the compound and recording the solubilization temperature after complete dissolution.

Solubility limit in ethyl lactate [%]	Solubility limit in glycerol	Compound
< 0.3	about 2 % wt.	C=C1C[C@@]23CC[C@H]4[C@@](C)(CCC[C@@]4(C)C(=O)O[C@@H]4O[C@H](CO)[C@@H](O)[C@H](O)[C@H]4O)[C@@H]2CC[C@]1(O[C@@H]1O[C@H](CO)[C@@H](O)[C@H](O[C@@H]2O[C@H](CO)[C@@H](O)[C@H](O)[C@H]2O)[C@H]1O[C@@H]1O[C@H](CO)[C@@H](O)[C@H](O)[C@H]1O)C3 [Reb A (99.5%), Rebaudioside A]
< 0.7	about 9 % wt.	C=C1C[C@@]23CC[C@H]4[C@@](C)(CCC[C@@]4(C)C(=O)O[C@@H]4O[C@H](CO)[C@@H](O)[C@H](O[C@@H]5O[C@H](CO)[C@@H](O)[C@H](O)[C@H]5O)[C@H]4O[C@@H]4O[C@H](CO)[C@@H](O)[C@H](O)[C@H]4O)[C@@H]2CC[C@]1(O[C@@H]1O[C@H](CO)[C@@H](O)[C@H](O[C@@H]2O[C@H](CO)[C@@H](O)[C@H](O)[C@H]2O)[C@H]1O[C@@H]1O[C@H](CO)[C@@H](O)[C@H](O)[C@H]1O)C3 [Reb M (95%), Rebaudioside M]
< 1	about 16 % wt.	Rebaudioside B [Reb B (95%)]
